Where two headings read alike, the source gives them in different places.
Legend:
GST-mouse CK1δTV1 = target: T1, GST-mouse CK1δTV1 (Mus musculus, UniProt Q9DC28); assay: In vitro kinase assay, GST-mouse CK1δTV1; format: biochemical
T1 construct: made in house; host or cells: bacteria (pGEX-2T)
Source text: (§1) CK1δTV1 and 2 (transcription variants 1 and 2) were PCR amplified from mouse cDNA (5′-primer TV1 and 2: 5′-[…]-3′, 3′-primer TV1: 5′-[…]-3′, 3′-primer TV2: 5′-[…]-3′) and cloned into pcDNA3.1/V5-His© TOPO® TA cloning vector (Invitrogen, Karlsruhe, Germany) before being subcloned into pGEX-2T expression vector via BamHI to generate plasmids pGEX-2T-mouse CK1δTV1 (FP1170) and pGEX-2T-mouse CK1δTV2 (FP1171).
(§2) Expression and purification of the GST-fusion proteins GST-mouse p53^1–64 (FP267), GST-rat CK1δ (FP449), GST-rat CK1δ^M82F (FP1153), GST-mouse CK1δTV1 (FP1170), and GST-mouse CK1δTV2 (FP1171) was carried out as described elsewhere (Wolff et al. [2005]). Expression of fusion proteins FP1170 and 1171 was either performed at 37°C for 2 h, or at 15°C for 14 h. FP449 and FP1153 were always expressed at 15°C for 14 h.
(§3) In vitro kinase assays were carried out in the presence of various potential inhibitors of CK1δ at an ATP concentration of 0.01 mM and dimethyl sulfoxide (DMSO) solvent control as described previously (Knippschild et al. [1996]). Where indicated higher ATP concentrations (0.05, 0.1, 0.25 and 0.5 mM) were used. The fusion protein GST-mouse p53^1−64 (FP267) was used as substrate. Recombinant CK1δ kinase domain (CK1δkd, NEB, Frankfurt am Main, Germany), GST-rat CK1δ (FP449), GST-rat CK1δ^M82F (FP1153), GST-mouse CK1δTV1, GST-mouse CK1δTV2 and recombinant human CK1ε (Invitrogen, Karlsruhe, Germany) were used as sources of enzyme. Phosphorylated proteins were separated by SDS-PAGE and the protein bands were visualized on dried gels by autoradiography. The phosphorylated protein bands were excised and quantified by Cherenkov counting.

GST-mouse CK1δTV2 = target: T2, GST-mouse CK1δTV2 (Mus musculus, UniProt Q9DC28); assay: In vitro kinase assay, GST-mouse CK1δTV2; format: biochemical
T2 construct: made in house; host or cells: bacteria (pGEX-2T)
T2 sequence (Q9DC28 1-409 isoform Q9DC28-2): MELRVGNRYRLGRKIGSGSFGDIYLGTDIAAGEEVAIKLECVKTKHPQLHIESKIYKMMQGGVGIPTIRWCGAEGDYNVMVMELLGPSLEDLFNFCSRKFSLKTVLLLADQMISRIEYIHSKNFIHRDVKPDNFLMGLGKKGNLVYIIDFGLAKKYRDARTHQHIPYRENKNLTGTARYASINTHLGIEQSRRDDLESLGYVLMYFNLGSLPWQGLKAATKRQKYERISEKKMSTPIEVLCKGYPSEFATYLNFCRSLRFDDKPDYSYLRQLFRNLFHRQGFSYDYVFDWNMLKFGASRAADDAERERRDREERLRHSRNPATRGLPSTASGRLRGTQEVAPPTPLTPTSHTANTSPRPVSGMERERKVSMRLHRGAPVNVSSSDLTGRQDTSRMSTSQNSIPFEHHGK
Source text: as §1, §2, §3

CSNK1D = target: T3, CSNK1D (Homo sapiens, UniProt P48730); assay: KINOMEscan selectivity profiling; format: binding; conditions: remaining relative to controls, read-out: %Ctrl @ 10 μM (CSNK1D)
T3 construct: purchased Ambit Biosciences Cooperation, San Diego, USA (KINOMEscan)
Description: (§4) KINOMEscan™ was performed to determine binding constants of coumpound 5 to 442 eukaryotic kinases by Ambit Biosciences Cooperation, San Diego, USA.

FLT3(D835Y) = target: T4, FLT3(D835Y) (Homo sapiens, UniProt P36888, D835Y); assay: KINOMEscan selectivity profiling; format: binding; conditions: remaining relative to controls, read-out: %Ctrl @ 10 μM (FLT3(D835Y))
T4 construct: purchased Ambit Biosciences Cooperation, San Diego, USA (KINOMEscan)
Description: as §4

CSNK1G2 = target: T5, CSNK1G2 (Homo sapiens, UniProt P78368); assay: KINOMEscan selectivity profiling; format: binding; conditions: remaining relative to controls, read-out: %Ctrl @ 10 μM (CSNK1G2)
T5 construct: purchased Ambit Biosciences Cooperation, San Diego, USA (KINOMEscan)
Description: as §4

CSNK1E = target: T6, CSNK1E (Homo sapiens, UniProt P49674); assay: KINOMEscan selectivity profiling; format: binding; conditions: remaining relative to controls, read-out: %Ctrl @ 10 μM (CSNK1E)
T6 construct: purchased Ambit Biosciences Cooperation, San Diego, USA (KINOMEscan)
Description: as §4

IRAK3 = target: T7, IRAK3 (Homo sapiens, UniProt Q9Y616); assay: KINOMEscan selectivity profiling; format: binding; conditions: remaining relative to controls, read-out: %Ctrl @ 10 μM (IRAK3)
T7 construct: purchased Ambit Biosciences Cooperation, San Diego, USA (KINOMEscan)
Description: as §4

Frwt648 cells = assay: Flow cytometry cell cycle analysis; format: cell-based; conditions: Frwt648, 2 and 4 μM, 48 h; range stated jointly for Frwt648 and mKSA and compounds 5 and 6
Description: (§5) Frwt648 cells [generated by SV40-transformation of F111 cells; (Hinzpeter and Deppert [1987])] and mKSA cells [SV40-transformed Balb/c fibroblasts; (Kit et al. [1969])] were grown in Dulbecco’s modified Eagle’s medium (DMEM) supplemented with 5% fetal calf serum (FCS; Biochrom, Berlin, Germany). The fibrosarcoma cell line HT1080 (Rasheed et al. [1974]) was grown in DMEM containing 10% FCS and 2 mM glutamine while both the prostate cancer cell line DU-145 (Stone et al. [1978]) and the ovary tissue cancer cell line OVCAR-3 (Hamilton et al. [1983]) were maintained in RPMI-1640 supplemented with 10% FCS. The pancreatic cancer cell line Colo357 (Morgan et al. [1980]) was grown in DMEM/RPMI (1:1) and the colon adenocarcinoma cell line SW480 (Leibovitz et al. [1976]) in Leibovitz L-15 medium, both containing 10% FCS and 2 mM glutamine. All media were supplemented with 100 U/ml penicillin and 100 μg/ml streptomycin (Gibco, Karlsruhe, Germany) and all cell lines were grown at 37°C in a humidified 5% carbon dioxide atmosphere.
Subconfluent Frwt648, mKSA, Colo357, OVCAR-3, HT1080, DU-145 and SW480 cells were treated with 2 or 4 μM of compounds 5 or 6 for 48 h. Untreated and DMSO treated cells served as control. Cells were harvested, washed once with phosphate-buffered saline (PBS), and prepared for cell cycle analysis using the “Cycle Test Plus Kit” (BD, San Jose, USA). […]

HT1080 cells = assay: Flow cytometry cell cycle analysis; format: cell-based, human; conditions: HT1080, 2 or 4 μM, 48 h (data not shown)
Description: as §5
(§6) Subconfluent Frwt648, mKSA, Colo357, OVCAR-3, HT1080, DU-145 and SW480 cells were treated with 2 or 4 μM of compounds 5 or 6 for 48 h. Untreated and DMSO treated cells served as control. Cells were harvested, washed once with phosphate-buffered saline (PBS), and prepared for cell cycle analysis using the “Cycle Test Plus Kit” (BD, San Jose, USA). Cell cycle profiles were obtained using a FACScan flow cytometer and CellQuest software (BD Biosciences, San Jose, USA).

DU-145 cells = assay: Flow cytometry cell cycle analysis; format: cell-based, human; conditions: 48 h (data not shown); for dead cells: DU-145, 2 or 4 μM
Description: as §5, §6

[1] = 0.01 mM ATP, substrate GST-mouse p53^1-64, mean ± SD, read-out: IC50 (μM) GST-CK1δ TV1
[2] = 0.01 mM ATP, substrate GST-mouse p53^1-64, mean ± SD, read-out: IC50 (μM) GST-CK1δ TV2

T1 sequence (Q9DC28 whole entry): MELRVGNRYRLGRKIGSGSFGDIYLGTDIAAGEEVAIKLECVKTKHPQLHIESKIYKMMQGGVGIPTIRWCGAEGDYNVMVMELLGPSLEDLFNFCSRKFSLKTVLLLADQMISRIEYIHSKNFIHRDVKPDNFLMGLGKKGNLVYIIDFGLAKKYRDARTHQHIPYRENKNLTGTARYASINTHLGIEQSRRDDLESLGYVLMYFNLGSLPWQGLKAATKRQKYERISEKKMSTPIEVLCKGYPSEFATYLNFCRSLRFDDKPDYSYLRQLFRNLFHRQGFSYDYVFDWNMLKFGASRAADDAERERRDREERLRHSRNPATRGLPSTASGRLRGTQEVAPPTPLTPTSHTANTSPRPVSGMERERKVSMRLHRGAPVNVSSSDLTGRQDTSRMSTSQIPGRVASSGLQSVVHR
T5 sequence (P78368 whole entry): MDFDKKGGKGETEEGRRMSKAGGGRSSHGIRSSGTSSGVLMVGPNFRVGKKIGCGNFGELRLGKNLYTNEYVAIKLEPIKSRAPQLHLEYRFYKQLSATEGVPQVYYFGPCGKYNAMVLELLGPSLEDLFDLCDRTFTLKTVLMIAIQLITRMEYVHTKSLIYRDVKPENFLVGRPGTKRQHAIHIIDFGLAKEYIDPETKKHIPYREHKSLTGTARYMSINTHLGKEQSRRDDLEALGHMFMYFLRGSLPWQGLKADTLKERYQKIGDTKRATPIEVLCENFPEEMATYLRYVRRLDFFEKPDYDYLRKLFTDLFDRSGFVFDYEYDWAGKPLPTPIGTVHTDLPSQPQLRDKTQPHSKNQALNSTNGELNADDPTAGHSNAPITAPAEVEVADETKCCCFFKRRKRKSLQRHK
T7 sequence (Q9Y616 whole entry): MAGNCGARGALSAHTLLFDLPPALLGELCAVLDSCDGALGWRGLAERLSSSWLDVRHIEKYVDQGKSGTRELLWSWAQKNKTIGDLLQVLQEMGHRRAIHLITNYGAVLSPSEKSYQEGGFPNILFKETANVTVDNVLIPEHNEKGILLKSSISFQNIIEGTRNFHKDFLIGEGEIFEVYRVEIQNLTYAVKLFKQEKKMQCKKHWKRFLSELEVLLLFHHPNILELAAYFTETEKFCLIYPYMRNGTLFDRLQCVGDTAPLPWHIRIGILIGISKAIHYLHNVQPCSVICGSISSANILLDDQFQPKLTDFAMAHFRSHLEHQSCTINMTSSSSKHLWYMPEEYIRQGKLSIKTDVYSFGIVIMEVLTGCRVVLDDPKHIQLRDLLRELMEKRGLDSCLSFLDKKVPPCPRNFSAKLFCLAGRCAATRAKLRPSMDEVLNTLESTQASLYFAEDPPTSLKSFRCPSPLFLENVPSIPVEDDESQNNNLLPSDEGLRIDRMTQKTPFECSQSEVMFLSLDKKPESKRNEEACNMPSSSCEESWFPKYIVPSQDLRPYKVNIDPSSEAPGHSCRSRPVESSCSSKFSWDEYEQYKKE
T3 sequence (P48730 whole entry): as the sequence (Q9DC28 whole entry) above, with V381I counted along it
T6 sequence (P49674 whole entry): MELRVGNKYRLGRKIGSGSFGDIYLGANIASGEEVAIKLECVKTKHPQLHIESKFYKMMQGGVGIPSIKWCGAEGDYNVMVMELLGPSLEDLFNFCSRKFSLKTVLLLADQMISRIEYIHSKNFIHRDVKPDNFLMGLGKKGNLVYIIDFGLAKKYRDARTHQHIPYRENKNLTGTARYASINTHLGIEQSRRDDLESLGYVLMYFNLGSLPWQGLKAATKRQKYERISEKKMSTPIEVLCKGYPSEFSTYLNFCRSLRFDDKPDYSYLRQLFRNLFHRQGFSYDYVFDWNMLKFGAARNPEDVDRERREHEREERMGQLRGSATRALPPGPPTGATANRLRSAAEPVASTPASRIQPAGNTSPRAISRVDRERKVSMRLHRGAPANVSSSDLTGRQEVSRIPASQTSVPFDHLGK

O=C(Nc1nc2ccc(C(F)(F)F)cc2[nH]1)c1csc(NC(=O)c2ccccc2OC(F)(F)F)n1 [Compound 5, 2-(2-(Trifluoromethoxy)benzamido)-N-(6-(trifluoromethyl)-1H-benzo[d]imidazol-2-yl)thiazole-4-carboxamide]
IC50 (GST-mouse CK1δTV1; [1]): 0.022 ± 0.02 µM
IC50 (GST-mouse CK1δTV1; IC50 CK1δTV1, 2 h, enzyme induced for 2 h at 37°C): 0.066 µM
IC50 (GST-mouse CK1δTV1; enzyme induced for 14 h at 15°C, read-out: IC50 CK1δTV1, 14 h): 0.023 µM
IC50 (GST-mouse CK1δTV2; [2]): 0.042 ± 0.02 µM
IC50 (GST-mouse CK1δTV2; IC50 CK1δTV2, 2 h, enzyme induced for 2 h at 37°C): 0.064 µM
IC50 (GST-mouse CK1δTV2; enzyme induced for 14 h at 15°C, read-out: IC50 CK1δTV2, 14 h): 0.043 µM
remaining binding at 10 µM (CSNK1D): 2%
remaining binding at 10 µM (FLT3(D835Y)): 10%
remaining binding at 10 µM (CSNK1G2): 9.9%
remaining binding at 10 µM (CSNK1E): 0.35%
remaining binding at 10 µM (IRAK3): 27%
dead cells (Frwt648 cells): 35–98%
dead cells (HT1080 cells): ≤ 20%
susceptibility of DU-145 to treatment (DU-145 cells; 2 or 4 μM): unsusceptible
dead cells (DU-145 cells): ≤ 20%

O=C(Nc1nc2cc(Cl)c(F)cc2[nH]1)c1csc(NC(=O)c2ccccc2OC(F)(F)F)n1 [Compound 6, N-(5-Chloro-6-fluoro-1H-benzo[d]imidazol-2-yl)-2-(2-(trifluoromethoxy)benzamido)thiazole-4-carboxamide]
IC50 (GST-mouse CK1δTV1; [1]): 0.048 ± 0.02 µM
IC50 (GST-mouse CK1δTV2; [2]): 0.055 ± 0.02 µM
dead cells (Frwt648 cells): 35–98%
dead cells (HT1080 cells): ≤ 20%
dead cells (DU-145 cells): ≤ 20%
